Test results from BindingDB's records for doi:10.1016/j.bmc.2007.01.010 (Abbott Laboratories, 2007).

Molecular target: T1, RAC-alpha serine/threonine-protein kinase [139-480,S378A,S381A,T450D,S473D] (Homo sapiens, UniProt P31749, S378A/S381A/S473D/T450D)
T1 construct: 139-480
Test: Akt Kinase Assay
Settings: pH 7.5; 22 °C
Experimental: The kinase assay uses His-Akt1 and a biotinylated peptide as substrate. The biotinylated peptides were immobilized on streptavidin-coated FLASH plates. After reaction, the 33P-phosphopeptide captured on the FLASH plates was measured with a TopCount Packard Instruments […] (Packard Instruments, Boston, MA).

T1 sequence (P31749 139-480 S378A/S381A/T450D/S473D): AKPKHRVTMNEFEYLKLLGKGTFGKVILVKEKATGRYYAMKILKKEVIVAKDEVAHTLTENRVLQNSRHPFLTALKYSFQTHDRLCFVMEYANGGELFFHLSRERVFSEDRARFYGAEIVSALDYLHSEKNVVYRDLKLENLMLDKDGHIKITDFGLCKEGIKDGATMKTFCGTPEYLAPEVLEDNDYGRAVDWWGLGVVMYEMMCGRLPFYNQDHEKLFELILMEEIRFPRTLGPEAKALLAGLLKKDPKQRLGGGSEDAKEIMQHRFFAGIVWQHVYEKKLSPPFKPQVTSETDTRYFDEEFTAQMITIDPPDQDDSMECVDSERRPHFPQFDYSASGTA

Structure (SMILES)	IC50
Cc1n[nH]c2cnc(-c3cncc(OC[C@@H](N)Cc4c[nH]c5ccccc45)c3)cc12 [pyrazolopyridine analog, 9g]	0.34 nM
N[C@H](COc1cncc(-c2cc3cn[nH]c3cn2)c1)Cc1c[nH]c2ccccc12 [3-[(2S)-2-amino-3-[(5-{1H-pyrazolo[3,4-c]pyridin-5-yl}pyridin-3-yl)oxy]propyl]-1H-indole]	0.6 nM
Nc1cc2[nH]ncc2cc1-c1cncc(OC[C@@H](N)Cc2c[nH]c3ccccc23)c1 [5-{5-[(2S)-2-amino-3-(1H-indol-3-yl)propoxy]pyridin-3-yl}-1H-indazol-6-amine]	51 nM
Nc1cc2[nH]nc(Cl)c2cc1-c1cncc(OC[C@@H](N)Cc2c[nH]c3ccccc23)c1 [5-{5-[(2S)-2-amino-3-(1H-indol-3-yl)propoxy]pyridin-3-yl}-3-chloro-1H-indazol-6-amine]	7.1 nM
N[C@H](COc1cncc(-c2ccc3[nH]ncc3c2)c1)Cc1c[nH]c2ccccc12 [5-{5-[(2S)-2-amino-3-(1H-indol-3-yl)propoxy]pyridin-3-yl}-1H-indazole]	1.5 nM
N[C@H](COc1cncc(-c2ccc3[nH]nc(Cl)c3c2)c1)Cc1c[nH]c2ccccc12 [5-{5-[(2S)-2-amino-3-(1H-indol-3-yl)propoxy]pyridin-3-yl}-3-chloro-1H-indazole]	1 nM
N[C@H](COc1cncc(-c2cc3cn[nH]c3cc2[N+](=O)[O-])c1)Cc1c[nH]c2ccccc12 [5-{5-[(2S)-2-amino-3-(1H-indol-3-yl)propoxy]pyridin-3-yl}-6-nitro-1H-indazole]	953 nM

More lines, now with the values ahead:

IC50	Structure (SMILES)
13 nM	C=Cc1n[nH]c2cnc(-c3cncc(OC[C@@H](N)Cc4ccccc4)c3)cc12 [3-[(2S)-2-amino-3-phenylpropoxy]-5-{3-ethenyl-1H-pyrazolo[3,4-c]pyridin-5-yl}pyridine]
1.8 nM	N[C@H](COc1cncc(-c2ccc3[nH]nc(C(F)(F)F)c3c2)c1)Cc1c[nH]c2ccccc12 [5-{5-[(2S)-2-amino-3-(1H-indol-3-yl)propoxy]pyridin-3-yl}-3-(trifluoromethyl)-1H-indazole]
59 nM	N[C@H](COc1cncc(-c2cc3c(Cl)n[nH]c3cn2)c1)Cc1ccccc1 [3-[(2S)-2-amino-3-phenylpropoxy]-5-{3-chloro-1H-pyrazolo[3,4-c]pyridin-5-yl}pyridine]
104 nM	Cc1n[nH]c2c[n+]([O-])c(-c3cncc(OC[C@@H](N)Cc4ccccc4)c3)cc12 [5-{5-[(2S)-2-amino-3-phenylpropoxy]pyridin-3-yl}-3-methyl-6-oxido-1H-pyrazolo[3,4-c]pyridin-6-ium]
25 nM	Cc1n[nH]c2cnc(-c3cncc(OC[C@@H](N)Cc4ccccc4)c3)cc12 [3-[(2S)-2-amino-3-phenylpropoxy]-5-{3-methyl-1H-pyrazolo[3,4-c]pyridin-5-yl}pyridine]
6.1 nM	N[C@H](COc1cncc(-c2cc3c(-c4ccco4)n[nH]c3cn2)c1)Cc1ccccc1 [3-[(2S)-2-amino-3-phenylpropoxy]-5-[3-(furan-2-yl)-1H-pyrazolo[3,4-c]pyridin-5-yl]pyridine]
228 nM	Cn1cccc1-c1n[nH]c2cnc(-c3cncc(OC[C@@H](N)Cc4ccccc4)c3)cc12 [3-[(2S)-2-amino-3-phenylpropoxy]-5-[3-(1-methyl-1H-pyrrol-2-yl)-1H-pyrazolo[3,4-c]pyridin-5-yl]pyridine]
223 nM	N[C@H](COc1cncc(-c2cc3cn[nH]c3cn2)c1)Cc1ccccc1 [3-[(2S)-2-amino-3-phenylpropoxy]-5-{1H-pyrazolo[3,4-c]pyridin-5-yl}pyridine]
8.3 nM	N[C@H](COc1cncc(-c2cc3c(-c4ccccc4)n[nH]c3cn2)c1)Cc1ccccc1 [3-[(2S)-2-amino-3-phenylpropoxy]-5-{3-phenyl-1H-pyrazolo[3,4-c]pyridin-5-yl}pyridine]
